row,SMILES,melting point [°C]
1,"Cc1c(NC(=O)c2ccc(-c3ccc(F)cc3)cc2)ccc2cc(CN3CCC3)cnc12 [Example 191, N-[3-(1-azetidinylmethyl)-8-methyl-7-quinolinyl]-4′-fluoro[1,1′-biphenyl]-4-carboxamide]",153 to 155
2,"Cc1c(NC(=O)c2ccc(-c3ccc(F)cc3)cc2)ccc2cc(CN3[C@H](C)CCC[C@@H]3C)cnc12 [Example 193, N-(3-{[(2R,6S)-2,6-dimethylpiperidinyl]methyl}-8-methyl-7-quinolinyl)-4′-fluoro[1,1′-biphenyl]-4-carboxamide]",167 to 168
3,"Cc1c(NC(=O)c2ccc(-c3ccc(F)cc3)cc2)ccc2cc(CN(C(C)C)C(C)C)cnc12 [Example 194, N-{3-[(diisopropylamino)methyl]-8-methyl-7-quinolinyl}-4′-fluoro[1,1′-biphenyl]-4-carboxamide]",179 to 180
4,"Cc1c(NC(=O)c2ccc(-c3ccc(F)cc3)cc2)ccc2cc(CN3CCOCC3)cnc12 [Example 198, 4′-fluoro-N-[8-methyl-3-(4-morpholinylmethyl)-7-quinolinyl][1,1′-biphenyl]-4-carboxamide]",176 to 178
5,"Cc1c(NC(=O)c2ccc(-c3ccc(F)cc3)cc2)ccc2cc(CN3CCC(CC(N)=O)CC3)cnc12 [Example 200, N-(3-{[4-(2-amino-2-oxoethyl)-1-piperidinyl]methyl}-8-methyl-7-quinolinyl)-4′-fluoro[1,1′-biphenyl]-4-carboxamide]",258 to 260
6,"CNC(=O)CC1CCN(Cc2cnc3c(C)c(NC(=O)c4ccc(-c5ccc(F)cc5)cc4)ccc3c2)CC1 [Example 201, 4′-fluoro-N-[8-methyl-3-({4-[2-(methylamino)-2-oxoethyl]-1-piperidinyl}methyl)-7-quinolinyl][1,1′-biphenyl]-4-carboxamide]",229 to 231
7,"Cc1c(NC(=O)c2ccc(-c3ccc(F)cc3)cc2)ccc2cc(CN3CCC(CC(=O)N(C)C)CC3)cnc12 [Example 202, N-[3-({4-[2-(dimethylamino)-2-oxoethyl]-1-piperidinyl}methyl)-8-methyl-7-quinolinyl]-4′-fluoro[1,1′-biphenyl]-4-carboxamide]",200 to 201
8,"CCNC(=O)CC1CCN(Cc2cnc3c(C)c(NC(=O)c4ccc(-c5ccc(F)cc5)cc4)ccc3c2)CC1 [Example 203, N-[3-({4-[2-(ethylamino)-2-oxoethyl]-1-piperidinyl}methyl)-8-methyl-7-quinolinyl]-4′-fluoro[1,1′-biphenyl]-4-carboxamide]",243 to 245
9,"CCN(CC)C(=O)CC1CCN(Cc2cnc3c(C)c(NC(=O)c4ccc(-c5ccc(F)cc5)cc4)ccc3c2)CC1 [Example 204, N-[3-({4-[2-(diethylamino)-2-oxoethyl]-1-piperidinyl}methyl)-8-methyl-7-quinolinyl]-4′-fluoro[1,1′-biphenyl]-4-carboxamide]",158 to 160
10,"Cc1c(NC(=O)c2ccc(-c3ccc(F)cc3)cc2)ccc2cc(CN3CCC(CC(=O)N4CCCCC4)CC3)cnc12 [Example 205, 4′-fluoro-N-[8-methyl-3-({4-[2-oxo-2-(1-piperidinyl)ethyl]-1-piperidinyl}methyl)-7-quinolinyl][1,1′-biphenyl]-4-carboxamide]",189 to 190
11,"Cc1c(NC(=O)c2ccc(-c3ccc(F)cc3)cc2)ccc2cc(CN3CCC(CCCC(N)=O)CC3)cnc12 [Example 206, N-(3-{[4-(4-amino-4-oxobutyl)-1-piperidinyl]methyl}-8-methyl-7-quinolinyl)-4′-fluoro[1,1′-biphenyl]-4-carboxamide]",232 to 234
12,"CNC(=O)CCCC1CCN(Cc2cnc3c(C)c(NC(=O)c4ccc(-c5ccc(F)cc5)cc4)ccc3c2)CC1 [Example 207, 4′-fluoro-N-[8-methyl-3-({4-[4-(methylamino)-4-oxobutyl]-1-piperidinyl}methyl)-7-quinolinyl][1,1′-biphenyl]-4-carboxamide]",210 to 212
13,"Cc1c(NC(=O)c2ccc(-c3ccc(F)cc3)cc2)ccc2cc(CN3CCC(CCCC(=O)N(C)C)CC3)cnc12 [Example 208, N-[3-({4-[4-(dimethylamino)-4-oxobutyl]-1-piperidinyl}methyl)-8-methyl-7-quinolinyl]-4′-fluoro[1,1′-biphenyl]-4-carboxamide]",202 to 204
14,"CCNC(=O)CCCC1CCN(Cc2cnc3c(C)c(NC(=O)c4ccc(-c5ccc(F)cc5)cc4)ccc3c2)CC1 [Example 209, N-[3-({4-[4-(ethylamino)-4-oxobutyl]-1-piperidinyl}methyl)-8-methyl-7-quinolinyl]-4′-fluoro[1,1′-biphenyl]-4-carboxamide]",217 to 220
15,"CCN(CC)C(=O)CCCC1CCN(Cc2cnc3c(C)c(NC(=O)c4ccc(-c5ccc(F)cc5)cc4)ccc3c2)CC1 [Example 210, N-[3-({4-[4-(diethylamino)-4-oxobutyl]-1-piperidinyl}methyl)-8-methyl-7-quinolinyl]-4′-fluoro[1,1′-biphenyl]-4-carboxamide]",145 to 146
16,"Cc1c(NC(=O)c2ccc(-c3ccc(F)cc3)cc2)ccc2cc(CN3CCC(CCCC(=O)N4CCCCC4)CC3)cnc12 [Example 211, 4′-fluoro-N-[8-methyl-3-({4-[4-oxo-4-(1-piperidinyl)butyl]-1-piperidinyl}methyl)-7-quinolinyl][1,1′-biphenyl]-4-carboxamide]",154 to 156
17,"Cc1cc2cc(CN3CCCC3)cnc2cc1NC(=O)c1ccc(-c2ccccc2F)cc1 [Example 213, 2′-fluoro-N-[6-methyl-3-(1-pyrrolidinylmethyl)-7-quinolinyl][1,1′-biphenyl]-4-carboxamide]",148 to 149

row,SMILES,melting point [°C]
1,"Cc1cc2cc(CN3CCCC3)cnc2cc1NC(=O)c1ccc(-c2ccc(F)cc2F)cc1 [Example 214, 2′,4′-difluoro-N-[6-methyl-3-(1-pyrrolidinylmethyl)-7-quinolinyl][1,1′-biphenyl]-4-carboxamide]",158 to 160
2,"Cc1cc2cc(CN3CCCC3)cnc2cc1NC(=O)c1ccc(-c2ccc(C(F)(F)F)cc2)cc1 [Example 215, N-[6-methyl-3-(1-pyrrolidinylmethyl)-7-quinolinyl]-4′-(trifluoromethyl)[1,1′-biphenyl]-4-carboxamide]",216 to 219
3,"Cc1cc2cc(CN3CCCC3)cnc2cc1NC(=O)c1ccc(-c2ccc(F)c(F)c2)cc1 [Example 216, 3′,4′-difluoro-N-[6-methyl-3-(1-pyrrolidinylmethyl)-7-quinolinyl][1,1′-biphenyl]-4-carboxamide]",220 to 223
4,"CCc1ccc(-c2ccc(C(=O)Nc3cc4ncc(CN5CCCC5)cc4cc3C)cc2)cc1 [Example 217, 4′-ethyl-N-[6-methyl-3-(1-pyrrolidinylmethyl)-7-quinolinyl][1,1′-biphenyl]-4-carboxamide]",188
5,"CSc1ccc(-c2ccc(C(=O)Nc3cc4ncc(CN5CCCC5)cc4cc3C)cc2)cc1 [Example 219, N-[6-methyl-3-(1-pyrrolidinylmethyl)-7-quinolinyl]-4′-(methylthio)-[1,1′-biphenyl]-4-carboxamide]",198
6,"Cc1cc2cc(CN3CCCC3)cnc2cc1NC(=O)c1ccc(-c2ccc(Cl)s2)cc1 [Example 220, 4-(5-chlorothien-2-yl)-N-[6-methyl-3-(1-pyrrolidinylmethyl)-7-quinolinyl]benzamide]",216
7,"Cc1cc2cc(CN3CCCC3)cnc2cc1NC(=O)c1ccc(-c2ccc3ccccc3c2)cc1 [Example 222, N-[6-methyl-3-(1-pyrrolidinylmethyl)-7-quinolinyl]-4-(2-naphthyl)benzamide]",194
8,"Cc1cc2cc(CN3CCCC3)cnc2cc1NC(=O)c1ccc(-c2ccsc2)cc1 [Example 223, N-[6-methyl-3-(1-pyrrolidinylmethyl)-7-quinolinyl]-4-thien-3-ylbenzamide]",187
9,"Cc1cc2cc(CN3CCCC3)cnc2cc1NC(=O)c1ccc(-c2ccco2)cc1 [Example 224, 4-(2-furyl)-N-[6-methyl-3-(1-pyrrolidinylmethyl)-7-quinolinyl]benzamide]",154
10,"Cc1cc2cc(CN3CCCC3)cnc2cc1NC(=O)c1ccc(-c2ccccc2)cc1F [Example 226, 3-fluoro-N-[6-methyl-3-(1-pyrrolidinylmethyl)-7-quinolinyl][1,1′-biphenyl]-4-carboxamide]",180 to 183
11,"COc1ccc(-c2ccc(C(=O)Nc3cc4ncc(CN5CCCC5)cc4cc3C)c(F)c2)cc1 [Example 227, 3-fluoro-4′-methoxy-N-[6-methyl-3-(1-pyrrolidinylmethyl)-7-quinolinyl][1,1′-biphenyl]-4-carboxamide]",187 to 190
12,"Cc1cc2cc(CN3CCCC3)cnc2cc1NC(=O)c1ccc(-c2ccc(F)cc2)cc1F [Example 228, 3,4′-difluoro-N-[6-methyl-3-(1-pyrrolidinylmethyl)-7-quinolinyl][1,1′-biphenyl]-4-carboxamide]",174 to 177
13,"Cc1ccc(-c2ccc(C(=O)Nc3cc4ncc(CN5CCCC5)cc4cc3C)c(F)c2)cc1 [Example 229, 3-fluoro-4′-methyl-N-[6-methyl-3-(1-pyrrolidinylmethyl)-7-quinolinyl][1,1′-biphenyl]-4-carboxamide]",176 to 179
14,"Cc1cc2cc(CN3CCCC3)cnc2cc1NC(=O)c1ccc(-c2ccc(Cl)cc2)cc1F [Example 230, 4′-chloro-3-fluoro-N-[6-methyl-3-(1-pyrrolidinylmethyl)-7-quinolinyl][1,1′-biphenyl]-4-carboxamide]",195 to 198
15,"Cc1cc2cc(CN3CCCC3)cnc2cc1NC(=O)c1ccc(-c2ccccc2)c(F)c1 [Example 232, 2-fluoro-N-[6-methyl-3-(1-pyrrolidinylmethyl)-7-quinolinyl][1,1′-biphenyl]-4-carboxamide]",167 to 170
16,"Cc1cc2cc(CN3CCCC3)cnc2cc1NC(=O)c1ccc(-c2ccc(F)cc2)c(F)c1 [Example 233, 2,4′-difluoro-N-[6-methyl-3-(1-pyrrolidinylmethyl)-7-quinolinyl][1,1′-biphenyl]-4-carboxamide]",163 to 166
17,"Cc1ccc(-c2ccc(C(=O)Nc3cc4ncc(CN5CCCC5)cc4cc3C)cc2F)cc1 [Example 234, 2-fluoro-4′-methyl-N-[6-methyl-3-(1-pyrrolidinylmethyl)-7-quinolinyl][1,1′-biphenyl]-4-carboxamide]",175 to 178
